In patent publication US7388017B2, “Inhibitors of serine proteases, particularly hepatitis C virus NS3 protease” (Vertex Pharmaceuticals Incorporated, priority 1996, dated 2008):
Starred links: 1 amine or outer side, 2 acyl side, 3 side chain; linkers in the order of their positions; H or OH if unused. Non-standard residues stand in square brackets, D forms with d. Residues, ends and D or L forms follow the SMILES beside them. ξ: configuration not given here. *: point of attachment. X45 = O=C([C@@H]1C2CC2CN1[*:1])[*:2]; 1Nal = N[CH](Cc1cccc2ccccc12)C(=O)O; 2Nal = N[CH](Cc1ccc2ccccc2c1)C(=O)O; Hydrocinnamoyl = O=C(CCc1ccccc1)*; Pyrazinecarbonyl = O=C(c1cnccn1)*; Hyp = O=C(O)[CH]1C[CH](O)CN1; Abu = CC[CH](N)C(=O)O; CO = O=C([*:1])[*:2]; Bz = O=C(c1ccccc1)*; NHPh = c1ccc(N*)cc1; ξAbu = CCC(N)C(=O)O; Bn = c1ccc(C*)cc1

Biological target: T1, HCV NS3 protease (Hepatitis C virus genotype 1a, UniProt P27958)
T1 construct: more particularly HCV NS3 proteases
Test: Enzyme inhibition of HCV NS3 serine protease (cleavage of peptide substrate / EDVV AbuC-p-nitroanilide, with or without NS4A)
Type: biochemical
Conditions: Enzyme inhibition data; Ki from rate vs [inhibitor] plots, Morrison tight binding competitive inhibition fit; 30 C, pH 7.8; read-out: Ki
How it was run: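 Spectrophotometric assay at 30 °C following pNA release at 405 nm from EDVV AbuC-pNA substrate, with or without NS4A. Ki from rate versus [inhibitor] fitted to Morrison's tight-binding competitive inhibition equation; Kii/Kis from mixed-inhibition fits; values reported in μM.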

T1 sequence (P27958 1027-1208): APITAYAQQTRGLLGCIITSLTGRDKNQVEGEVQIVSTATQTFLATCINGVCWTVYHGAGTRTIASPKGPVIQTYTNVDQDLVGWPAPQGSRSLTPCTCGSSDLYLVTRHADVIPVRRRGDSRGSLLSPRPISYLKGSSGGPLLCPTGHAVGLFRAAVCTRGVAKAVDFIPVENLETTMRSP

SMILES | Ki [µM]
CCC(C=O)NC(=O)C1CC(OCc2ccccc2)CN1C(=O)C(NC(=O)C(Cc1cccc2ccccc12)NC(=O)c1cnccn1)C(C)C (stereo not drawn) [Compound 131] (Pyrazinecarbonyl-[1Nal]V[Hyp](Bn)[Abu]-aldehyde; configuration not given here) | 1 to 100
CCC(C=O)NC(=O)C1CC(OCc2ccccc2)CN1C(=O)C(NC(=O)C(Cc1ccc2ccccc2c1)NC(=O)c1cnccn1)C(C)C (stereo not drawn) [Compound 132] (Pyrazinecarbonyl-[2Nal]V[Hyp](Bn)[Abu]-aldehyde; configuration not given here) | 1 to 100
CCC(C=O)NC(=O)C1CC(OCc2ccccc2)CN1C(=O)C(NC(=O)C(Cc1c[nH]cn1)NC(=O)c1cnccn1)C(C)C (stereo not drawn) [Compound 134] (Pyrazinecarbonyl-HV[Hyp](Bn)[Abu]-aldehyde; configuration not given here) | > 100
CCC(C=O)NC(=O)C1CC(OCc2ccccc2)CN1C(=O)C(NC(=O)C(Cc1ccccc1)NC(=O)c1cnccn1)C(C)C (stereo not drawn) [Compound 141] (Pyrazinecarbonyl-FV[Hyp](Bn)[Abu]-aldehyde; configuration not given here) | 1 to 100
CCC(C=O)NC(=O)C1CC(OCc2ccccc2)CN1C(=O)C(NC(=O)C(NC(=O)c1cnccn1)C(C)OCc1ccccc1)C(C)C (stereo not drawn) [Compound 142] (Pyrazinecarbonyl-T(Bn)V[Hyp](Bn)[Abu]-aldehyde; configuration not given here) | 1 to 100
CCC(C=O)NC(=O)C1CC(OCc2ccccc2)CN1C(=O)C(NS(=O)(=O)Cc1ccccc1)C(C)C (stereo not drawn) [Compound 143] | > 100
CCC(C=O)NC(=O)C1CC(OCc2ccccc2)CN1C(=O)C(NS(=O)(=O)c1ccccc1)C(C)C (stereo not drawn) [Compound 144] | > 100
CCC(C=O)NC(=O)C1CC(OCc2ccccc2)CN1C(=O)C(NC(=O)Nc1ccccc1)C(C)C (stereo not drawn) [Compound 145] ({NHPh-CO}-Val-[Hyp](Bn)-[Abu]-aldehyde; configuration not given here) | 1 to 100
CCC(C=O)NC(=O)C1CC(OCc2ccccc2)CN1C(=O)C(NC(=O)CCc1ccccc1)C(C)C (stereo not drawn) [Compound 147] (Hydrocinnamoyl-Val-[Hyp](Bn)-[Abu]-aldehyde; configuration not given here) | > 100
CCC(C=O)NC(=O)C1CC(OCc2ccccc2)CN1C(=O)C(NC(=O)c1ccccc1)C(C)C (stereo not drawn) [Compound 149] (Bz-Val-[Hyp](Bn)-[Abu]-aldehyde; configuration not given here) | 1 to 100
CCC(C=O)NC(=O)C1CC(OCc2ccccc2)CN1C(=O)C(NC(=O)Cc1ccc(NC(C)=O)cc1)C(C)C (stereo not drawn) [Compound 152] | > 100
CCC(C=O)NC(=O)C1CC(OCc2ccccc2)CN1C(=O)C(NC(=O)c1ccc[nH]1)C(C)C (stereo not drawn) [Compound 153] | 1 to 100
CCC(C=O)NC(=O)C1CC(OCc2ccccc2)CN1C(=O)C(NC(=O)c1cc2ccccc2[nH]1)C(C)C (stereo not drawn) [Compound 154] | 1 to 100
CCC(C=O)NC(=O)C1CC(OCc2ccccc2)CN1C(=O)C(NC(=O)Cc1csc(N)n1)C(C)C (stereo not drawn) [Compound 155] | 1 to 100
CCC(C=O)NC(=O)C1CC(OCc2ccccc2)CN1C(=O)C(NC(=O)c1ccc(O)c(Cl)c1)C(C)C (stereo not drawn) [Compound 156] | 1 to 100
CCC(C=O)NC(=O)C1CC(OCc2ccccc2)CN1C(=O)C(NC(=O)c1nccc2ccccc12)C(C)C (stereo not drawn) [Compound 158] | 1 to 100
CCC(C=O)NC(=O)C1CC(OCc2ccccc2)CN1C(=O)C(NC(=O)c1cccc2ccccc12)C(C)C (stereo not drawn) [Compound 159] | 1 to 100
CCC(C=O)NC(=O)C1CC(OCc2ccccc2)CN1C(=O)C(NC(=O)Cc1ccccc1[N+](=O)[O-])C(C)C (stereo not drawn) [Compound 161] | > 100
CCC(C=O)NC(=O)C1CC(OCc2ccccc2)CN1C(=O)C(NC(=O)Cc1ccsc1)C(C)C (stereo not drawn) [Compound 163] | > 100
CCC(C=O)NC(=O)C1CC(OCc2ccccc2)CN1C(=O)C(NC(=O)C(OC)c1ccccc1)C(C)C (stereo not drawn) [Compound 164] | > 100

SMILES | Ki [µM]
CCC(C=O)NC(=O)C1CC(OCc2ccccc2)CN1C(=O)C(NC(=O)CCCc1ccccc1)C(C)C (stereo not drawn) [Compound 166] | > 100
CCC(C=O)NC(=O)C1CC(OCc2ccccc2)CN1C(=O)C(NC(=O)c1c(O)ccc2ccccc12)C(C)C (stereo not drawn) [Compound 168] | 1 to 100
CCC(C=O)NC(=O)C1CC(OCc2ccccc2)CN1C(=O)C(NC(=O)COc1ccccc1C=O)C(C)C (stereo not drawn) [Compound 169] | > 100
CCC(C=O)NC(=O)C1CC(OCc2ccccc2)CN1C(=O)C(NC(=O)CCC(=O)c1ccccc1)C(C)C (stereo not drawn) [Compound 170] | > 100
CCC(C=O)NC(=O)C1CC(OCc2ccccc2)CN1C(=O)C(NC(=O)CCOc1ccccc1)C(C)C (stereo not drawn) [Compound 171] | > 100
CCCCC(C(=O)O)C(=O)NC(C(=O)N1CC(OCc2ccccc2)CC1C(=O)NC(C=O)CC)C(C)C (stereo not drawn) [Compound 172] | > 100
CCCC(C(=O)NC(C(=O)N1CC(OCc2ccccc2)CC1C(=O)NC(C=O)CC)C(C)C)c1ccccc1 (stereo not drawn) [Compound 174] | 1 to 100
CCC(C=O)NC(=O)C1CC(OCc2ccccc2)CN1C(=O)C(NC(=O)c1c[nH]c2ccccc12)C(C)C (stereo not drawn) [Compound 175] | 1 to 100
CCC(C=O)NC(=O)C1CC(OCc2ccccc2)CN1C(=O)C(NC(=O)C1CCCC1c1ccccc1)C(C)C (stereo not drawn) [Compound 177] | > 100
CCC(C=O)NC(=O)C1CC(OCc2ccccc2)CN1C(=O)C(NC(=O)c1c(-c2ccccc2Cl)noc1C)C(C)C (stereo not drawn) [Compound 182] | > 100
CCC(C=O)NC(=O)C1CC(OCc2ccccc2)CN1C(=O)C(NC(=O)c1c2c(nc3ccccc13)CCCC2)C(C)C (stereo not drawn) [Compound 183] | 1 to 100
CCC(C=O)NC(=O)C1CC(OCc2ccccc2)CN1C(=O)C(NC(=O)c1c(-c2c(Cl)cccc2Cl)noc1C)C(C)C (stereo not drawn) [Compound 186] | > 100
CCC(C=O)NC(=O)C1CC(OCc2ccccc2)CN1C(=O)C(NC(=O)c1cc(C)oc1C)C(C)C (stereo not drawn) [Compound 189] | > 100
CCC(C=O)NC(=O)C1CC(OCc2ccccc2)CN1C(=O)C(NC(=O)c1c(C)cc(C)cc1C)C(C)C (stereo not drawn) [Compound 191] | > 100
CCC(C=O)NC(=O)C1CC(OCc2ccccc2)CN1C(=O)C(NC(=O)c1cccc(C)c1O)C(C)C (stereo not drawn) [Compound 192] | > 100
CCC(C=O)NC(=O)C1CC(OCc2ccccc2)CN1C(=O)C(NC(=O)c1c(C)cccc1C)C(C)C (stereo not drawn) [Compound 193] | > 100
CCC(C=O)NC(=O)C1CC(OCc2ccccc2)CN1C(=O)C(NC(=O)c1ccccc1Br)C(C)C (stereo not drawn) [Compound 195] | 1 to 100
CCOc1ccc2ccccc2c1C(=O)NC(C(=O)N1CC(OCc2ccccc2)CC1C(=O)NC(C=O)CC)C(C)C (stereo not drawn) [Compound 197] | 1 to 100
CCC(C=O)NC(=O)[C@@H]1C2CC2CN1C(=O)[C@@H](NC(=O)[C@@H](NC(=O)[C@H](CC(=O)O)NC(=O)[C@H](CCC(=O)O)NC(C)=O)C(C)C)C(C)C (stereo partly drawn) [Compound 198] (Ac-EDVV[X45][ξAbu]-aldehyde) | < 1
